Results from patent publication US20110034990A1, “BIOCORRODIBLE IMPLANT WITH ACTIVE COATING” (priority 2009, published 2011).

Description: It has been discovered that squalene is a particularly suitable substance for use in some invention embodiments. […] Thus, for example, lycopene and ubichinon are toxic in concentrations of 10 μmol/l. Squalene, on the other hand, is not toxic, even in concentrations of 100 μmol/l.

With `CC(C)=CCCC(C)=CCCC(C)=CCCC=C(C)CCC=C(C)CCC=C(C)C` [Squalene, 2,6,10,15,19,23-hexamethyl-2,6,10,14,18,22-tetracosahexaene] the “concentration at which the substance is toxic” value (“concentration” for short) was over 100 µM.
In the case of `CC(C)=CCC/C(C)=C/C=C/C(C)=C/C=C/C(C)=C/C=C/C=C(C)/C=C/C=C(C)/C=C/C=C(\C)CCC=C(C)C` [lycopene], the “concentration” value is reported as 10 µM.
In the case of ubichinon, the “concentration” value is reported as 10 µM.
